± gives the expanded uncertainty stated by the source.
Tests used:
[1] = xn = mol fraction of the nth substance listed; settings: for surface tension liquid-gas: Ring tensiometer; for viscosity / mass density: 101.3 kPa, Liquid; for viscosity: Capillary tube (Ostwald / Ubbelohde) method; for mass density: Vibrating tube method
[2] = refractive index (Na D-line) (dimensionless); xn = mol fraction of the nth substance listed; settings: 101.3 kPa, Liquid, Standard Abbe refractometry

C[P+](c1ccccc1)(c1ccccc1)c1ccccc1.[Br-] [methyltriphenylphosphonium bromide] + NCCO
Settings	mass density, [1] [kg/m3]	refractive index, [2]	surface tension liquid-gas, [1] [mN/m]	viscosity, [1] [mPa·s]
298.15 K, x1 = 0.11	1092.9 ± 2.2	1.50265 ± 0.00042	50.3 ± 0.7	27.7 ± 2.8
298.15 K, x1 = 0.13	1099.8 ± 2.2	1.50587 ± 0.00043	50.2 ± 0.7	28 ± 2.8
298.15 K, x1 = 0.14	1107.4 ± 2.3	1.51187 ± 0.00043	49.3 ± 0.7	35.5 ± 3.6
298.15 K, x1 = 0.16	1195.8 ± 2.4	1.56644 ± 0.00043	48.9 ± 0.7	128.9 ± 13
308.15 K, x1 = 0.11	1085 ± 2.2	1.49911 ± 0.00043	49.5 ± 0.7	20 ± 2
308.15 K, x1 = 0.13	1091.9 ± 2.2	1.50221 ± 0.00042	49.3 ± 0.7	20 ± 2
308.15 K, x1 = 0.14	1100 ± 2.2	1.50794 ± 0.00042	48.4 ± 0.7	20.7 ± 2.1
308.15 K, x1 = 0.16	1187.9 ± 2.4	1.56247 ± 0.00043	48 ± 0.7	84.9 ± 8.7
318.15 K, x1 = 0.11	1077.1 ± 2.2	1.49546 ± 0.00042	48.6 ± 0.7	13.6 ± 1.4
318.15 K, x1 = 0.13	1083.8 ± 2.2	1.49935 ± 0.00042	48.2 ± 0.7	13.1 ± 1.3
318.15 K, x1 = 0.14	1092.2 ± 2.2	1.50501 ± 0.00043	47.6 ± 0.7	13.6 ± 1.4
318.15 K, x1 = 0.16	1180.1 ± 2.4	1.55846 ± 0.00043	47.2 ± 0.7	37.9 ± 4
328.15 K, x1 = 0.11	1068.9 ± 2.2	1.49224 ± 0.00043	47.8 ± 0.7	9.5 ± 1
328.15 K, x1 = 0.13	1075.8 ± 2.2	1.49519 ± 0.00044	47.2 ± 0.7	9.1 ± 0.9
328.15 K, x1 = 0.14	1084.2 ± 2.2	1.50071 ± 0.00043	46.7 ± 0.7	10 ± 1
328.15 K, x1 = 0.16	1172.3 ± 2.4	1.55518 ± 0.00042	46.4 ± 0.7	25.4 ± 2.6
338.15 K, x1 = 0.11	1060.8 ± 2.2	1.48802 ± 0.00043	46.9 ± 0.7	7 ± 0.7
338.15 K, x1 = 0.13	1067.6 ± 2.2	1.49063 ± 0.00044	46.3 ± 0.7	6.9 ± 0.7
338.15 K, x1 = 0.14	1076.1 ± 2.2	1.49733 ± 0.00043	45.9 ± 0.7	7.5 ± 0.8
338.15 K, x1 = 0.16	1164.5 ± 2.4	1.55159 ± 0.00043	45.6 ± 0.7	15.6 ± 1.6
348.15 K, x1 = 0.11	1052.7 ± 2.2	1.48405 ± 0.00043	46.2 ± 0.7	5.4 ± 0.5
348.15 K, x1 = 0.13	1059.4 ± 2.2	1.48631 ± 0.00043	45.3 ± 0.6	5.4 ± 0.5
348.15 K, x1 = 0.14	1068 ± 2.2	1.49343 ± 0.00042	44.9 ± 0.6	5.6 ± 0.6
348.15 K, x1 = 0.16	1156.6 ± 2.4	1.54699 ± 0.00044	44.8 ± 0.6	10.7 ± 1.1
358.15 K, x1 = 0.11	1044.7 ± 2.1	1.47988 ± 0.00043	45.3 ± 0.6	4.7 ± 0.5
358.15 K, x1 = 0.13	1051.1 ± 2.2	1.48215 ± 0.00043	44.4 ± 0.6	4.8 ± 0.5
358.15 K, x1 = 0.14	1059.8 ± 2.2	1.49027 ± 0.00042	44.2 ± 0.6	4.9 ± 0.5
358.15 K, x1 = 0.16	1148.8 ± 2.3	1.54286 ± 0.00043	44 ± 0.6	9.1 ± 0.9

CCCC[N+](CCCC)(CCCC)CCCC.[Br-] [tetrabutylammonium bromide] + NCCO
Settings	mass density, [1] [kg/m3]	refractive index, [2]	surface tension liquid-gas, [1] [mN/m]	viscosity, [1] [mPa·s]
298.15 K, x1 = 0.14	1048.1 ± 8.5	1.48383 ± 0.0039	36.1 ± 0.5	22
298.15 K, x1 = 0.16	1056.6 ± 4	1.4877 ± 0.0013	36 ± 0.5	52.9 ± 19
298.15 K, x1 = 0.2	1060.9 ± 1.2	1.4881 ± 0.0011	35.8 ± 0.5	80.2 ± 14
298.15 K, x1 = 0.25	1061.6 ± 0.5	1.49229 ± 0.0017	35.7 ± 0.5	106.8 ± 15
308.15 K, x1 = 0.14	1038.7 ± 9.4	1.48033 ± 0.0039	35.7 ± 0.5	15.5
308.15 K, x1 = 0.16	1048 ± 4.4	1.48423 ± 0.0012	35.6 ± 0.5	31 ± 13
308.15 K, x1 = 0.2	1053.6 ± 1.4	1.48464 ± 0.0011	35.4 ± 0.5	54.7 ± 12
308.15 K, x1 = 0.25	1054.5 ± 0.6	1.48876 ± 0.0017	35.3 ± 0.5	77 ± 12
318.15 K, x1 = 0.14	1028.9 ± 13	1.47704 ± 0.0042	35.4 ± 0.6	12
318.15 K, x1 = 0.16	1041.5 ± 5	1.48115 ± 0.0013	35.2 ± 0.5	21.1 ± 8.8
318.15 K, x1 = 0.2	1046.4 ± 1.3	1.48169 ± 0.0011	35 ± 0.5	38.2 ± 8.1
318.15 K, x1 = 0.25	1047.3 ± 0.6	1.48547 ± 0.0016	34.8 ± 0.5	53.57 ± 8.7
328.15 K, x1 = 0.14	1018.5 ± 15	1.47349 ± 0.0043	35.1 ± 0.5	9
328.15 K, x1 = 0.16	1034.1 ± 5.8	1.47778 ± 0.0014	34.9 ± 0.5	14.4 ± 3.7
328.15 K, x1 = 0.2	1039.2 ± 1.4	1.47851 ± 0.0011	34.6 ± 0.5	20.1 ± 5.1
328.15 K, x1 = 0.25	1040.2 ± 0.6	1.48242 ± 0.0017	34.5 ± 0.5	35.29 ± 7.2
338.15 K, x1 = 0.14	1010.2 ± 17	1.46989 ± 0.0041	34.7 ± 0.5	6.8 ± 2
338.15 K, x1 = 0.16	1026.7 ± 6.1	1.47385 ± 0.0016	34.6 ± 0.5	9 ± 2.2
338.15 K, x1 = 0.2	1032 ± 1.4	1.47541 ± 0.0014	34.3 ± 0.5	13.4 ± 2.5
338.15 K, x1 = 0.25	1033.1 ± 0.6	1.47966 ± 0.0017	34 ± 0.5	18.6 ± 4.1
348.15 K, x1 = 0.14	1001.1 ± 18	1.46595 ± 0.0039	34.4 ± 0.5	5.7 ± 1.7
348.15 K, x1 = 0.16	1019.3 ± 6.6	1.46989 ± 0.0017	34.2 ± 0.5	7.5 ± 1.8
348.15 K, x1 = 0.2	1024.7 ± 1.5	1.47164 ± 0.0015	33.9 ± 0.5	10.5 ± 1.7
348.15 K, x1 = 0.25	1026.1 ± 0.7	1.47651 ± 0.0019	33.6 ± 0.5	13.8 ± 2
358.15 K, x1 = 0.14	992.1 ± 20	1.46234 ± 0.004	34.1 ± 0.5	5.2 ± 0.5
358.15 K, x1 = 0.16	1012 ± 7.6	1.46632 ± 0.0021	33.9 ± 0.5	5.2 ± 1.1
358.15 K, x1 = 0.2	1017.4 ± 1.6	1.46897 ± 0.0015	33.5 ± 0.5	8 ± 1.4
358.15 K, x1 = 0.25	1019 ± 0.8	1.47303 ± 0.0017	33.2 ± 0.5	10.2 ± 1.4
